The values below come from patent publication US20080269161A1, “Compositions and Methods Relating to Mitochondrial Hyperpolarization in Neurological Disease” (priority 2005, published 2008).

Entries after “also recorded” stand apart in the source; their conditions may differ.

Assay [1] concerns the target T1, human adenosine receptor A1 (Homo sapiens, UniProt P30542).
T1 sequence (P30542 1-326): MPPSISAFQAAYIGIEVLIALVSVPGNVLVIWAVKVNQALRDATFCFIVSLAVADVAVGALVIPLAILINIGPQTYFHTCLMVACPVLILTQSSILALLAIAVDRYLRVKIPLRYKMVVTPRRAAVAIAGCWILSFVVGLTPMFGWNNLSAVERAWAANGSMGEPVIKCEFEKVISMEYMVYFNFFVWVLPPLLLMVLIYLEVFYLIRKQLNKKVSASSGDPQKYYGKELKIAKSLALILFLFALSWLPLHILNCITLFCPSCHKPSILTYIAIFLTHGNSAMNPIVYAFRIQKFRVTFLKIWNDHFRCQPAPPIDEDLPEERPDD
The conditions noted are these: recombinant human receptor; cited from earlier work.

Assay [2] concerns the target T2, human adenosine receptor A3 (Homo sapiens, UniProt P0DMS8).
T2 sequence (P0DMS8 1-318): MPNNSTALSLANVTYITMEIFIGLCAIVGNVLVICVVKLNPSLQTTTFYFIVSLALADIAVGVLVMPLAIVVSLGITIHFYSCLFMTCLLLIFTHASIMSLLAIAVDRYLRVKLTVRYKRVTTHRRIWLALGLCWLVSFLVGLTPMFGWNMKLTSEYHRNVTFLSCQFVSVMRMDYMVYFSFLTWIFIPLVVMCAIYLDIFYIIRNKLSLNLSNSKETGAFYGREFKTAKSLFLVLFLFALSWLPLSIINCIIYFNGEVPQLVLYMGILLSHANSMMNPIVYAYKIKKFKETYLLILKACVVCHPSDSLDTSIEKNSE
Particulars: recombinant human receptor; cited from earlier work.

For assay [3], the target named is human adenosine receptor A2A (Homo sapiens, UniProt P29274). The conditions noted are these: recombinant human receptor; cited from earlier work.
Assay [4] deals with Tat-stimulated TNF release in monocytes. Kind of assay: Tat-stimulated TNF release by primary monocytes (ELISA). The format is cell-based, human. The conditions noted are these: 4 h. The protocol: Human primary monocytes were treated with Tat (100 nM) in the presence or absence of the A2AR agonist, CGS21680 (CGS; 1 μM) or the A2AR antagonist, ZM241385 (100 nM) for 4 h. TNF levels in culture supernatants were then quantitated by ELISA. Data represent mean+SEM of three replicates, from a single representative experiment
Primary monocytes were seeded in separate triplicate wells, and exposed independently to LPS (100 ng/ml), vehicle (NT) or Tat (100 nM) in the presence or absence of the A2AR agonist, CGS21680 (1 μM). After 4 h, cells were harvested. (A) TNF was measured in cell supernatants by ELISA Mean data values (±S.D.) are shown for the triplicate wells. (B) The corresponding cells from each well in panel A were lysed and subjected to qRTPCR analysis. Each cDNA sample was analyzed in quadruplicate. Assay results are presented as fold induction of gene expression, compared to untreated cells, after normalization to levels of GAPDH. Data represent mean±SD for each individual experimental replicate/well.
Human primary monocytes were treated with Tat (100 nM) in the presence or absence of the A2AR agonist, ATL313 (1-4 nM) or the A2AR antagonist, ATL455 (1-4 nM) for 4 h. TNF levels in culture supernatants were then quantitated by ELISA. […]
Human primary monocytes were treated with Tat (100 nM) in the presence or absence of the A2AR agonist, ATL313 (at the indicated doses) for 4 h. TNF levels in culture supernatants were then quantitated by ELISA. […]
(6) Primary monocytes. […] Results are compared for both populations, as well as purity (as assessed by immunophenotyping using CD14, CD68 and MHC class II).
The effect of an A2AR agonist on TNF release by primary human monocytes was also determined. Monocytes were stimulated with HIV-1 Tat, in the presence or absence of the A2AR agonist CGS21680 or the A2AR antagonist ZM251385 and TNF release was then measured in cell culture supernatants using an ELISA assay.
Quantitative real-time PCR analysis was used to measure TNF message levels in Tat-treated monocytes. […]
(An ELISA detects its analyte on a solid surface through an enzyme-linked reagent.)

Assay [5] has as its target T3, human adenosine receptor A2B (Homo sapiens, UniProt P29275).
T3 sequence (P29275 1-332): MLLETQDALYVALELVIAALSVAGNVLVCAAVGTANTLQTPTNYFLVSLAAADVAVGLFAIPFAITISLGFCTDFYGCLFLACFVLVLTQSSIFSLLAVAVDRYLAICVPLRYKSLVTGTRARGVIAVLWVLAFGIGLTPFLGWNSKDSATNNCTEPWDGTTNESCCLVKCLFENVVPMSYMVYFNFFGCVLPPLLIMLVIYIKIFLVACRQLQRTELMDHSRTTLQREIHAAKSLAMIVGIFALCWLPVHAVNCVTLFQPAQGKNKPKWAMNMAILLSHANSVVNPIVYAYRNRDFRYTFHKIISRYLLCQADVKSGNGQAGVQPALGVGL
The conditions noted are these: recombinant human receptor; cited from earlier work.

The test system of assay [6] is rat cerebellar granule neurons (CGNs). Nature of the assay: Tat-induced apoptosis of cerebellar granule neurons (TUNEL). Type of assay: cell-based. The conditions noted are these: Tat 500 nM, 48 h. The protocol:
CGNs were exposed to HIV-1 Tat (Tat, 500 nM), or vehicle alone (NT), in the presence or absence of the A2A antagonist, ZM241385. After 48 h, cultures were analyzed for the percentage of apoptotic cells using the TUNEL assay. Data represent mean±SEM for one experiment that was performed in triplicate; data are representative of two independent experiments.
CGNs were exposed to HIV-1 Tat (Tat, 500 nM), or vehicle alone (No Tat), in the presence or absence of the A2AR antagonists, ATL455 and ZM241385, or the A2AR agonists ATL313 and CGS21680. After 48 h, cultures were analyzed for the percentage of apoptotic cells using the TUNEL assay. Data represent mean±SEM for one experiment that was performed in triplicate; data are representative of two independent experiments.
(1) Primary rat cerebellar granule neurons (CGNs). CGNs represent a highly homogenous population of primary neurons which are susceptible to Tat and PAF-mediated cell killing and have been used in many of previous studies. CGN cells are isolated according to published procedures [Maggirwar, S. B., et al. 1999. J Neurochem 73:578-86] [Tong, N., et al. 2001. Eur J Neurosci 13:1913-22].
78(4): p. […] 22(6): p. 1102-6].
Primary rat cerebellar granule neurons (CGNs) were exposed to a neurotoxic concentration of HIV-1 Tat, in the presence or absence of an A2AR antagonist (ZM241385). […] It is important to note that CGNs express adenosine A2A receptors [Vacas, J., et al. 2003. Brain Res 992:272-280].
Primary cultures of rat cerebellar granule neurons (CGNs) were exposed to HIV-Tat ([…]) alone or together with increasing doses of the A2AR antagonist ATL-455 or A2A agonists ATL313 or CGS21680. Cells are treated with the test compounds for defined time intervals of up to 48 hours (1, 4, 8, 24, and 48 hours).

human adenosine receptor A2A, sequence (P29274 whole entry): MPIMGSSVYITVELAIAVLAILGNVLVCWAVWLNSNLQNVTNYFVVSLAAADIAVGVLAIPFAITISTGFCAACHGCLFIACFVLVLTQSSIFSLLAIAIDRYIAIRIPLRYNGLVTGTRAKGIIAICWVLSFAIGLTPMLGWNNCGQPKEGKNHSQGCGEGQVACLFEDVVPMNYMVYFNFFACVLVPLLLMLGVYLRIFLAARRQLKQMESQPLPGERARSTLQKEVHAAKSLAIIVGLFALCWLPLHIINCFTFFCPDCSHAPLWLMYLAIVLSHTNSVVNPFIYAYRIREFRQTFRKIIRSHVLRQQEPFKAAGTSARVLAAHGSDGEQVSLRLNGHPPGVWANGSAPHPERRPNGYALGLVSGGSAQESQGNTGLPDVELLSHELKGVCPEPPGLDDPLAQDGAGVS

The term Ki denotes the dissociation constant of the complex between target and ligand, obtained from inhibition or displacement. What is called IC50 is the concentration that gives 50% inhibition. Regarding `COC(=O)N1CCC(CC#Cc2nc(N)c3ncn(C4OC(C(=O)NC5CC5)C(O)C4O)c3n2)CC1` (stereo not shown) [ATL313, 4-{3-[6-amino-9-(5-cyclopropylcarbamoyl-3,4-dihydroxytetrahydrofuran-2-yl)-9H-purin-2-yl]prop-2-ynyl}piperidine-1-carboxylic acid methyl ester], the Ki was 0.052 µM in assay [1], 0.32 µM in assay [2], 0.0006 µM in assay [3] and more than 1 µM in assay [5]. In addition, the IC50 in assay [4] (Homo sapiens, Monocyte, read-out: approximate IC50 for inhibitory effect on Tat-stimulated TNF release in monocytes) was less than 0.001 µM. Further, the “effect on Tat-induced monocyte activation (TNF release)” value in assay [4] (Tat 100 nM, CGS21680 1 μM, ATL313, ATL455 1-4 nM) is on record as “very similar results; also recorded: opposed”. In assay [6], the “effect on Tat-induced neuronal apoptosis” value is listed as “did not result in an increase in cell death”.
